Data set [1] in a line: Aqueous solubility in PBS pH 7.4 incubated for 24 hrs by nephelometry. Format: physicochemical.
Data set [2] is described as follows: Stability in mouse liver microsomes assessed as half life at 1 uM incubated for 120 mins by LC-MS/MS analysis. Particulars: 2 h. Format: ADME, Microsome. (Microsomes from liver hold many membrane-bound enzymes, among them those of drug oxidation.)
A short description of data set [3]: Solubility of compound at 2 mg/ml incubated for 24 hrs by shake flask thermodynamic solubility method based HPLC analysis. Format: physicochemical.

Consider seven compounds from ChEMBL document CHEMBL4321875, “Potent, Selective, Water Soluble, Brain-Permeable EP2 Receptor Antagonist for Use in Central Nervous System Disease Models” (J Med Chem, 2020).

Molecules are shown by their SMILES. Values after ≈ are worked out from the molar mass of the structure shown.

By kinetic solubility is commonly meant the concentration staying in solution when a stock, usually in DMSO, is diluted into the medium. With `Cc1[nH]c2ccccc2c1CCNC(=O)c1ccc(N2CCOCC2)cc1`, the kinetic solubility at 24 h in data set [1] stood at 70 µM (≈ 25.4 µg/mL). That is a double-digit micromolar value. `Cc1[nH]c2ccccc2c1CCNC(=O)c1ccc(N2CCOCC2)nc1` returned a kinetic solubility at 24 h in data set [1] of 206 µM (≈ 75.1 µg/mL). `Cc1[nH]c2ccccc2c1CCNC(=O)c1cnc(Nc2ccncc2)nc1` had a solubility (kinetic) at 24 h in data set [1] of 38 µM (≈ 14.2 µg/mL). Consider `Cc1cc(C)nc(Nc2ncc(C(=O)NCCc3c(C(F)(F)F)[nH]c4ccccc34)cn2)c1`, for which the solubility (kinetic) at 24 h in data set [1] was 45 µM (≈ 20.5 µg/mL). With `Cc1ccnc(Nc2ncc(C(=O)NCCc3c(C)[nH]c4ccccc34)cn2)c1`, the t1/2 in data set [2] was found to be 8 min. This compound returned a solubility (kinetic) at 24 h in data set [1] of 25 µM (≈ 9.66 µg/mL). What is called thermodynamic solubility is the concentration in solution at equilibrium with solid. On to `Cc1cc(C)nc(Nc2ncc(C(=O)NCCc3c(C(F)(F)F)[nH]c4ccccc34)cn2)c1.Cl`, for which, in data set [3], the solubility (thermodynamic) at 24 h was found to be 700 µM. Take `Cc1ccc(Nc2ncc(C(=O)NCCc3c(C)[nH]c4ccccc34)cn2)c(C)n1`: the solubility (kinetic) at 24 h in data set [1] came to 100 µM (≈ 40 µg/mL).
